Measured values from patent US20210353681A1, “USE OF TNKS INHIBITORS FOR REGENERATION OF CARTILAGE” (SEOUL NATIONAL UNIVERSITY R&DB FOUNDATION, priority 2020, published 2021).

What was measured:
[1] = system: primary cultured mouse chondrocytes; test: mRNA and protein levels of cartilage-specific matrix genes in primary cultured mouse chondrocytes; format: cell-based; settings: for expression of cartilage-specific matrix genes: chondrocytes treated with drugs, mRNA and protein levels (FIG. 1f, g)
Experimental: Primary culture of mouse articular chondrocytes. For the primary culture of mouse articular chondrocytes, cells were isolated from femoral condyles and tibial plateaus of 4-5-day-old ICR mice, as described previously^83. Chondrocytes were maintained in DMEM supplemented with 10% fetal bovine serum (FBS), 100 units/ml penicillin, and 100 μg/ml streptomycin, and cells were treated as indicated in each experiment. Transfection was performed with […] PRO (Biontex) according to the manufacturer's protocol. All siRNAs, including negative control siRNA, were purchased from Bioneer. Recombinant mouse Wnt-3a (315-20) was purchased from PeproTech, and recombinant mouse Dkk-1 (5897-DK) was purchased from R&D Systems.
RT-PCR and qPCR. Total RNAs were extracted using TRI reagent (Molecular Research Center, Inc.). RNAs were reverse transcribed using EasyScript Reverse Transcriptase (Transgen Biotech). Then, cDNA was amplified by PCR or qPCR with the primers listed in Table 2. qPCR was performed with SYBR TOPreal qPCR 2× preMIX (Enzynomics) to determine transcript abundance. Transcript quantity was calculated using the ΔΔCt method, and Hprt or HPRT1 levels were used as housekeeping controls. The log 2 (fold change) value of the cartilage stromal gene of mouse articular chondrocytes treated with siRNA was clustered using a hierarchical clustering algorithm (mean association and central correlation distance) in 1.0.4 R package. PCA was performed using the same R package.
Whole-cell lysate preparation. Whole-cell lysates were prepared in RIPA buffer (150 mM NaCl, 1% NP-40, 50 mM Tris, pH 8.0, 0.5% sodium deoxycholate, 0.1% SDS) supplemented with a protease inhibitor cocktail (Sigma-Aldrich).

mouse chondrocytes = test: RNA sequencing and gene set enrichment analysis of treated chondrocytes; format: cell-based; settings: drugs 10 μM for 108 h vs vehicle; siRNAs vs control siRNA
Experimental: RNA sequencing (RNA-seq). Primary cultured mouse articular chondrocytes were treated with DMSO or 10 μM of XAV939 or IWR-1 for 108 h or transfected with control siRNA or Tnks and Tnks2 siRNAs. Three biological replicates were used for each group. One microgram of high-quality RNA samples (RIN>7.0) were used to construct RNA-seq libraries with the TruSeq Stranded mRNA Library Prep kit (Illumina). Libraries were validated with an Agilent 2100 Bioanalyzer. RNA-seq was performed on an Illumina HiSeq 2500 sequencer at Macrogen. The sequence reads were trimmed with Trimmomatic^86 and mapped against the mouse reference genome (mm10) using TopHat. Read counts per gene were calculated using HTSeq^88. Differential expression analysis was conducted using the DESeq2 R package^89. DEGs were selected using a |fold change| cutoff of >3 and a FDR q cutoff of <1×10^−5. DEGs at least one condition were clustered with hierarchical clustering algorithm (ward.D linkage with euclidean distance) using gplots R package. GO analysis was conducted using Enrichr^90. Heatmaps of DEGs that are in the cartilage-signature gene set or the osteoarthritis-signature gene sets were drawn with Gitools.
GSEA analysis. Genes were ranked according to the shrunken log2 fold change calculated via DESeq2. […]

[2] = system: mouse limb-bud mesenchymal cells; test: Mouse limb-bud micromass culture, Alcian Blue staining; format: cell-based; settings: micromass cultures, treated 3 days
Experimental: Mouse limb-bud micromass culture. For the micromass culture of mesenchymal cells, limb-bud cells were isolated from E11.5 ICR mouse embryos. 2.0×10^7 cells/ml were suspended in DMEM supplemented with 10% FBS, 100 units/ml penicillin, and 100 μg/ml streptomycin, and 15-μ1 drops were spotted on culture dishes. After 24 h, cells were treated as indicated for 3 days and subjected to Alcian Blue staining.

[3] = system: articular cartilage of DMM-operated mouse; test: Experimental OA in mice (DMM surgery), intra-articular hydrogel drug delivery; format: in vivo; settings: for degeneration of cartilage matrix caused by DMM (Safranin O staining, OARSI grade): IA administration in hydrogel, 10 nmol drug
Experimental: Preparation of hydrogels and in vivo confirmation of controlled release of embedded molecules. 6-O-Palmitoyl-l-ascorbic acid (76183) was purchased from Sigma-Aldrich. […] PBS-suspended hydrogel (10 μl, PBS:hydrogel=1:1) containing 50 pmol DiD was administered intra-articularly, and at 1-9 days post-injection, light-emitting diode (LED) and fluorescence images of knee joints were obtained. LuminoGraph II (Atto) was used to acquire the images.
Experimental OA in mice. Eight-week-old male ICR mice were used for experimental OA. Experimental OA was induced by DMM (Destabilization of the medial meniscus) surgery on the right hindlimb, and sham surgery was conducted on the left hindlimb as a control (Glasson, S. S., Blanchet, T. J. & Morris, E. A. The surgical destabilization of the medial meniscus (DMM) model of osteoarthritis in the 129/SvEv mouse. Osteoarthritis Cartilage 15, 1061-1069, doi:10.1016/j.joca.2007.03.006 (2007)). 10 μl of PBS-suspended hydrogel (PBS:hydrogel=1:1) containing vehicle or 10 nmol drugs was administered intra-articularly.
Histology and immunohistochemistry. Mouse and rat knee joint samples and human cartilage samples were fixed with 4% paraformaldehyde overnight at 4° C. All samples were […] for 2-4 weeks 0.5M EDTA, pH 7.4 at 4° C. and embedded in paraffin. Mouse and rat paraffin blocks were sectioned at a thickness of 6 μm, and human paraffin blocks were sectioned to a thickness of 5 μm. […] Cartilage regeneration in osteochondral defect model was scored according to the International Cartilage Repair Society (ICRS) scoring system (Haikarainen, T., Krauss, S. & Lehtio, L. Tankyrases: structure, function and therapeutic implications in cancer. Curr Pharm Des 20, 6472-6488 (2014) and Mainil-Varlet, P. et al. Histological assessment of cartilage repair: a report by the Histology Endpoint Committee of the International Cartilage Repair Society (ICRS). J Bone Joint Surg Am 85-A Suppl 2, 45-57 (2003)) by three blinded observers.

Row | Structure (SMILES) | expression of cartilage-specific matrix genes [1] | enrichment of cartilage-signature genes in whole transcriptome (GSEA) (mouse chondrocytes) | chondrogenic nodule formation [2] | degeneration of cartilage matrix caused by DMM (Safranin O staining, OARSI grade) [3] | cartilage destruction in late-stage OA (Safranin O staining, OARSI grade) ([3]; treatment started 6 weeks after DMM surgery, for additional 6 weeks, compared with vehicle-treated mice) | expression of cartilage matrisome ([1]; β-catenin inhibition in chondrocytes (FIG. 2e, f, g), iCRT 14 for 24 h)
1 | C[C@]1(c2nc3c(C(N)=O)cccc3[nH]2)CCCN1 [ABT-888] | failed to increase their expressions | – | – | – | – | –
2 | O=C(Nc1cccc2cccnc12)c1ccc(N2C(=O)C3C4C=CC(C4)C3C2=O)cc1 (centres unmarked) [IWR-1, 4-(1,3,3a,4,7,7a-Hexahydro-1,3-dioxo-4,7-methano-2H-isoindol-2-yl)-N-8-quinolinyl-Benzamide] | increased the expression of cartilage-specific matrix genes | positively enriched | effectively induced chondrogenic nodule formation | significant reduction in the degeneration of cartilage matrix | – | –
3 | O=c1[nH]c(-c2ccc(C(F)(F)F)cc2)nc2c1CSCC2 [XAV939, 3,5,7,8-Tetrahydro-2-[4-(trifluoromethyl)phenyl]-4H-thiopyrano[4,3-d]pyrimidin-4-one] | increased the expression of cartilage-specific matrix genes | positively enriched | effectively induced chondrogenic nodule formation | significant reduction in the degeneration of cartilage matrix | reduction in the cartilage destruction | –
4 | Cc1cc(/C=C2\SC(=O)N(c3ccccc3)C2=O)c(C)n1-c1cccnc1 [iCRT 1429] | – | – | – | – | – | did not significantly affect the expression of cartilage matrisome
